Consider 20 compounds from ChEMBL document CHEMBL3045657, “Synthesis and biological evaluation of naphthalene, furan and pyrrole based chalcones as cytotoxic and antimicrobial agents” (2012).

What all share (assay type): functional
For assay [1], the system named is Staphylococcus aureus. The experiment in a line: Antibacterial activity against Staphylococcus aureus MTCC 96 after 24 hr by serial tube dilution method.
Assay [2] has as its system OVCAR. Nature of the assay: Cytotoxicity against Homo sapiens (human) OVCAR cells assessed as cell growth inhibition at 1 x 10^-5 M after 48 hr by SRB assay. Particulars: for inhibition of growth at 10 µM: read-out: GI.
In assay [3] the test system is Salmonella typhi. Nature of the assay: Antibacterial activity against Salmonella enterica subsp. enterica serovar Typhi MTCC 1251 after 24 hr by serial tube dilution method.
Assay [4] relates to PC-3. Nature of the assay: Cytotoxicity against Homo sapiens (human) PC3 cells assessed as cell growth inhibition at 1 x 10^-5 M after 48 hr by SRB assay. Conditions: for inhibition of growth at 10 µM: PC-3, 48 h, read-out: GI.
The test system of assay [5] is HEp-2. The experiment in a line: Cytotoxicity against Homo sapiens (human) Hep2 cells assessed as cell growth inhibition at 1 x 10^-5 M after 48 hr by SRB assay. Particulars: for inhibition of growth at 10 µM: HEp-2, 48 h, read-out: GI.
Assay [6] has as its system Escherichia coli. The experiment in a line: Antibacterial activity against Escherichia coli MTCC 82 after 24 hr by serial tube dilution method.
Assay [7] deals with Aspergillus niger. Nature of the assay: Antifungal activity against Aspergillus niger MTCC 1344 after 48 hr by serial tube dilution method. Particulars: MTCC 1344, 48 h.
Assay [8] deals with Bacillus subtilis. Nature of the assay: Antibacterial activity against Bacillus subtilis MTCC 2451 after 24 hr by serial tube dilution method.
Assay [9] has as its system Pseudomonas aeruginosa. The experiment in a line: Antibacterial activity against Pseudomonas aeruginosa MTCC 2642 after 24 hr by serial tube dilution method.
Assay [10] deals with IMR-32. The experiment in a line: Cytotoxicity against Homo sapiens (human) IMR32 cells assessed as cell growth inhibition at 1 x 10^-5 M after 48 hr by SRB assay. Particulars: for inhibition of growth at 10 µM: IMR-32, 48 h, read-out: GI. (In general: Sulforhodamine B stains cellular protein and so reports cell mass.)
The test system of assay [11] is Candida albicans. The experiment in a line: Antifungal activity against Candida albicans MTCC 3018 after 48 hr by serial tube dilution method. Conditions: MTCC 3018, 48 h.

Values after ≈ are worked out from the molar mass of the structure shown. Active and inactive are the calls of the source.

One may read the MIC as the smallest concentration in the dilution series that meets the test's criterion for growth inhibition. `O=C(/C=C/c1ccc2c(c1)OCO2)c1ccco1`: the MIC in assay [1] (MTCC 96, 24 h) was 62.5 µg/mL (≈ 258 µM); in assay [3] (MTCC 1251, 24 h), 125 µg/mL (≈ 516 µM); in assay [6] (MTCC 82, 24 h), 125 µg/mL (≈ 516 µM); in assay [7], 500 µg/mL (≈ 2060 µM); in assay [8] (MTCC 2451, 24 h), 31.2 µg/mL (≈ 129 µM); in assay [9] (MTCC 2642, 24 h), 125 µg/mL (≈ 516 µM). Also, the inhibition of growth at 10 µM stood at 11% in assay [2], 21% in assay [4], 13% in assay [5] and 16% in assay [10].

In the case of `O=C(/C=C/c1c(Cl)cccc1Cl)c1ccco1`, the MIC was 62.5 µg/mL (≈ 234 µM) in assay [1] (MTCC 96, 24 h); 125 µg/mL (≈ 468 µM) in [3] (MTCC 1251, 24 h); 250 µg/mL (≈ 936 µM) in assay [11]; 62.5 µg/mL (≈ 234 µM) in [6] (MTCC 82, 24 h); 250 µg/mL (≈ 936 µM) in assay [7]; 125 µg/mL (≈ 468 µM) in [8] (MTCC 2451, 24 h). Moreover, in [9] (MTCC 2642, 24 h), the lowest concentration to inhibit growth (MIC) was 250 µg/mL (≈ 936 µM). Besides, the “growth inhibition (GI)” value in assay [2], in [4] and in [10] was “inactive” in each case. For the same compound, in assay [5], the inhibition of growth at 10 µM was 11%.

Consider `COc1ccc(/C=C/C(=O)c2ccc3ccccc3c2)cc1`, for which the inhibition of growth at 10 µM is 31% in assay [2], 33% in assay [4], 29% in assay [5] and 36% in [10].

As for `O=C(/C=C/c1ccc2c(c1)OCO2)c1ccc2ccccc2c1`, the MIC in assay [1] (MTCC 96, 24 h) was 62.5 µg/mL (≈ 207 µM); in [3] (MTCC 1251, 24 h) it was 125 µg/mL (≈ 413 µM); in [6] (MTCC 82, 24 h), 125 µg/mL (≈ 413 µM); in [8] (MTCC 2451, 24 h) it was 125 µg/mL (≈ 413 µM); in assay [9] (MTCC 2642, 24 h), 250 µg/mL (≈ 827 µM). The inhibition of growth at 10 µM in assay [2] worked out at 46%; in assay [4] it was 42%; in assay [5] it was 42%; in assay [10], 39%.

For the compound `O=C(/C=C/c1ccc2ccccc2c1)c1ccc2ccccc2c1`, the MIC in assay [1] (MTCC 96, 24 h) came out at 62.5 µg/mL (≈ 203 µM); in [6] (MTCC 82, 24 h) it was 125 µg/mL (≈ 405 µM); in assay [8] (MTCC 2451, 24 h) it was 125 µg/mL (≈ 405 µM); in [9] (MTCC 2642, 24 h) it was 250 µg/mL (≈ 811 µM). For the same compound, the inhibition of growth at 10 µM in [2] was determined as 76%; in [4], 79%; in assay [5] it was 73%; in assay [10], 77%.

Take `COc1ccc(OC)c(/C=C/C(=O)c2ccc3ccccc3c2)c1`: the MIC turned out to be 125 µg/mL (≈ 393 µM) in [1] (MTCC 96, 24 h); 250 µg/mL (≈ 785 µM) in assay [3] (MTCC 1251, 24 h); 250 µg/mL (≈ 785 µM) in assay [6] (MTCC 82, 24 h); 125 µg/mL (≈ 393 µM) in assay [8] (MTCC 2451, 24 h). Further, the inhibition of growth at 10 µM was 52% in assay [2], 49% in assay [4], 47% in assay [5] and 51% in assay [10].

On to `O=C(/C=C/c1ccc([N+](=O)[O-])cc1)c1ccc[nH]1`, for which the minimal inhibitory concentration (MIC) in assay [1] (MTCC 96, 24 h) is 250 µg/mL (≈ 1030 µM); in assay [6] (MTCC 82, 24 h) it was 500 µg/mL (≈ 2060 µM). Besides, the inhibition of growth at 10 µM in [2] came out at 14%; in [4] it was 11%; in [5] it was 13%; in assay [10], 11%.

Turning to `O=C(/C=C/c1cccc([N+](=O)[O-])c1)c1ccco1`, the MIC was found to be 125 µg/mL (≈ 514 µM) in assay [1] (MTCC 96, 24 h); 125 µg/mL (≈ 514 µM) in [6] (MTCC 82, 24 h); 125 µg/mL (≈ 514 µM) in assay [8] (MTCC 2451, 24 h); 125 µg/mL (≈ 514 µM) in assay [9] (MTCC 2642, 24 h). Further, the inhibition of growth at 10 µM in assay [2] amounted to 13%; in [5] it was 16%. The “growth inhibition (GI)” value in assay [4] and in assay [10] was “inactive” in each case.

As for `COc1cccc(/C=C/C(=O)c2ccc[nH]2)c1OC`, the inhibition of growth at 10 µM was 24% in assay [2], 31% in [4], 33% in [5] and 28% in assay [10].

As for `COc1ccc(/C=C/C(=O)c2ccc3ccccc3c2)cc1O`, the MIC stood at 15.6 µg/mL (≈ 51.3 µM) in assay [1] (MTCC 96, 24 h); 125 µg/mL (≈ 411 µM) in assay [3] (MTCC 1251, 24 h); 62.5 µg/mL (≈ 205 µM) in [6] (MTCC 82, 24 h); 31.2 µg/mL (≈ 103 µM) in assay [8] (MTCC 2451, 24 h); 250 µg/mL (≈ 821 µM) in assay [9] (MTCC 2642, 24 h). Besides, the inhibition of growth at 10 µM in assay [2] stood at 52%; in [4], 47%; in assay [5], 57%; in assay [10], 61%.

Consider `O=C(/C=C/c1cccc([N+](=O)[O-])c1)c1ccc[nH]1`, for which the MIC in [1] (MTCC 96, 24 h) came out at 125 µg/mL (≈ 516 µM); in assay [3] (MTCC 1251, 24 h), 500 µg/mL (≈ 2060 µM); in [6] (MTCC 82, 24 h) it was 250 µg/mL (≈ 1030 µM); in [7], 500 µg/mL (≈ 2060 µM); in [8] (MTCC 2451, 24 h) it was 250 µg/mL (≈ 1030 µM). Also, the “growth inhibition (GI)” value in [2] was “inactive”. Moreover, the inhibition of growth at 10 µM was 13% in [4], 17% in assay [5] and 14% in [10].

In the case of `O=C(/C=C/c1ccccc1)c1ccc[nH]1`, the MIC in assay [1] (MTCC 96, 24 h) was 125 µg/mL (≈ 634 µM); in [3] (MTCC 1251, 24 h), 500 µg/mL (≈ 2540 µM); in assay [6] (MTCC 82, 24 h), 500 µg/mL (≈ 2540 µM); in assay [8] (MTCC 2451, 24 h), 250 µg/mL (≈ 1270 µM). The inhibition of growth at 10 µM in assay [2] turned out to be 18%; in assay [4] it was 22%; in assay [5], 23%; in assay [10], 14%.

Turning to `OC(Cn1cncn1)(Cn1cncn1)c1ccc(F)cc1F` [FLUCONAZOLE], the MIC in assay [11] came out at 0.3 µg/mL (≈ 0.98 µM); in [7], 0.2 µg/mL (≈ 0.653 µM).

For `O=C(/C=C/c1cccc([N+](=O)[O-])c1)c1ccc2ccccc2c1`, the MIC stood at 125 µg/mL (≈ 412 µM) in assay [1] (MTCC 96, 24 h) and 250 µg/mL (≈ 824 µM) in [6] (MTCC 82, 24 h). For the same compound, the inhibition of growth at 10 µM was 13% in assay [2], 16% in [4], 17% in assay [5] and 11% in assay [10].

Turning to `O=C(/C=C/c1cccc(Br)c1)c1ccc2ccccc2c1`, the MIC in assay [1] (MTCC 96, 24 h) was found to be 125 µg/mL (≈ 371 µM); in [3] (MTCC 1251, 24 h), 125 µg/mL (≈ 371 µM); in assay [6] (MTCC 82, 24 h), 250 µg/mL (≈ 741 µM); in [8] (MTCC 2451, 24 h), 125 µg/mL (≈ 371 µM); in [9] (MTCC 2642, 24 h), 250 µg/mL (≈ 741 µM). For the same compound, the inhibition of growth at 10 µM in [2] was found to be 14%; in assay [10], 11%. Further, the “growth inhibition (GI)” value in [4] and in assay [5] was “inactive” throughout.

`O=C(/C=C/c1ccccc1)c1ccco1`: the MIC in [1] (MTCC 96, 24 h) is 250 µg/mL (≈ 1260 µM); in assay [8] (MTCC 2451, 24 h), 250 µg/mL (≈ 1260 µM). Further, the “growth inhibition (GI)” value in assay [2] and in assay [5] was “inactive” in each case. For the same compound, the results for the inhibition of growth at 10 µM in assay [4] and in assay [10] were 19% and 13%, respectively.

Regarding `O=C(/C=C/c1ccco1)c1ccc2ccccc2c1`, the MIC is 125 µg/mL (≈ 503 µM) in assay [1] (MTCC 96, 24 h); 500 µg/mL (≈ 2010 µM) in assay [3] (MTCC 1251, 24 h); 250 µg/mL (≈ 1010 µM) in assay [8] (MTCC 2451, 24 h); 250 µg/mL (≈ 1010 µM) in [9] (MTCC 2642, 24 h). Besides, in [2], the “growth inhibition (GI)” value is “inactive”. In addition, the inhibition of growth at 10 µM was determined as 16% in assay [4], 21% in assay [5] and 13% in [10].

As to GENTAMICIN, the MIC amounted to 0.4 µg/mL in [1]; 0.2 µg/mL in assay [3]; 0.25 µg/mL in [6]; 0.3 µg/mL in [8]; 0.25 µg/mL in [9].

For the compound `CC1(C)S[C@@H]2[C@H](NC(=O)[C@H](N)c3ccc(O)cc3)C(=O)N2[C@H]1C(=O)O` [AMOXICILLIN], the MIC worked out at 0.2 µg/mL (≈ 0.547 µM) in [1] (MTCC 96, 24 h); 0.2 µg/mL (≈ 0.547 µM) in assay [3] (MTCC 1251, 24 h); 0.25 µg/mL (≈ 0.684 µM) in [6] (MTCC 82, 24 h); 0.2 µg/mL (≈ 0.547 µM) in assay [8] (MTCC 2451, 24 h); 0.3 µg/mL (≈ 0.821 µM) in [9] (MTCC 2642, 24 h).

For `O=C(/C=C/c1ccccc1)c1ccc2ccccc2c1`, the MIC in [1] (MTCC 96, 24 h) stood at 250 µg/mL (≈ 968 µM); in [6] (MTCC 82, 24 h) it was 500 µg/mL (≈ 1940 µM); in [9] (MTCC 2642, 24 h) it was 500 µg/mL (≈ 1940 µM). The inhibition of growth at 10 µM in assay [2] turned out to be 21%; in assay [4], 28%; in assay [5] it was 27%; in [10], 19%.
